According to ChEMBL document CHEMBL3621059, “Discovery of 4-Aryl-5,6,7,8-tetrahydroisoquinolines as Potent, Selective, and Orally Active Aldosterone Synthase (CYP11B2) Inhibitors: In Vivo Evaluation in Rodents and Cynomolgus Monkeys” (J Med Chem, 2015):
Converted amounts (≈) assume the structure as drawn. The source made the active and inactive calls. No cut-off for these calls is given here.

Experiments:
[1] = mouse, microsomes
Description: Clearance in mouse microsomes assessed per mg of protein

[2] = rat, microsomes
Description: Clearance in rat microsomes assessed per mg of protein

[3] = human, microsomes
Description: Clearance in human microsomes assessed per mg of protein

[4] = biological target: T1, Cytochrome P450 11B2, mitochondrial (Homo sapiens, UniProt P19099)
T1 sequence (P19099 whole entry): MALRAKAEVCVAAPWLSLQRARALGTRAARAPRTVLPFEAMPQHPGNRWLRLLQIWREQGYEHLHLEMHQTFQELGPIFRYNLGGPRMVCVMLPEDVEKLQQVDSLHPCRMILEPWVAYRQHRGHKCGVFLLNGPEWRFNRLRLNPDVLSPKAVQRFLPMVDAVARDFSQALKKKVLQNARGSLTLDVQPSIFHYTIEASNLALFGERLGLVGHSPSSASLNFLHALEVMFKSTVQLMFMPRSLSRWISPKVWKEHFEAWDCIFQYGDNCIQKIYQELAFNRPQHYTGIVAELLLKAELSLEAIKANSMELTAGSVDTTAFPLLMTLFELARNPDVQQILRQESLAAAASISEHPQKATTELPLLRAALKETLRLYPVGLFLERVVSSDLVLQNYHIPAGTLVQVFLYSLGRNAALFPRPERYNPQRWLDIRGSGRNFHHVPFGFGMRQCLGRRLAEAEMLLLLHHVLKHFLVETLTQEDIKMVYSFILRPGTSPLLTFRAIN
Description: Inhibition of human CYP11B2 expressed in human renal leiomyoblastoma cells using 11-deoxycorticosterone as substrate assessed as formation of aldosterone after 16 hrs by HTRF assay

[5] = biological target: T2, Cytochrome P450 11B2, mitochondrial (Rattus norvegicus, UniProt P30099); test: Inhibition of rat CYP11B2 expressed in renal leiomyoblastoma cells at 500 nM relative to control; format: cell-based
T2 sequence (P30099 whole entry): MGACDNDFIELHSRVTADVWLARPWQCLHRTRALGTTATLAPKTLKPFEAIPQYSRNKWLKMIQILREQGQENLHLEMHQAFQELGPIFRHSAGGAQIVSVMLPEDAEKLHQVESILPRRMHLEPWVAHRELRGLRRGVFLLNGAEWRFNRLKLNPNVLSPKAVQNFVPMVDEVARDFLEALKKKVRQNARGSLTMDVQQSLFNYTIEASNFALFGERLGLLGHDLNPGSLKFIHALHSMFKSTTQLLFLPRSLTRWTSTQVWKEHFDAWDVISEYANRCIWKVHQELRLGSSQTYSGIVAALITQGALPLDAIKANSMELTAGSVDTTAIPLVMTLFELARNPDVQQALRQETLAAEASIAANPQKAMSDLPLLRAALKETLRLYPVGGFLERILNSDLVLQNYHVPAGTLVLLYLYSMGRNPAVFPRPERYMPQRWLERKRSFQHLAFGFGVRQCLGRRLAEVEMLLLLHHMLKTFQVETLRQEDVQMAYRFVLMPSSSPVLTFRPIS

Rattus norvegicus [6] = species on record: Rattus norvegicus; test: Induction of improvement in renal histology in angiotension-2 ZSF1 rat infusion model; format: functional, organism-based
Rattus norvegicus [7] = species on record: Rattus norvegicus; test: Induction of improvement in glomerular filtration rate in angiotension-2 ZSF1 rat infusion model; format: functional, organism-based
Rattus norvegicus [8] = species on record: Rattus norvegicus; test: Reduction of aldosterone level in angiotension-2 ZSF1 rat infusion model; format: functional, organism-based
physchem [9] = conditions: 1-octanol/TAPSO buffer, pH 7.4
physchem [10] = conditions: PAMPA
Description: Permeability of the compound by PAMPA

Cytochrome P450 3A4 = Cytochrome P450 3A4 (Homo sapiens, UniProt P08684)
Chain of Cytochrome P450 3A4 (P08684 whole entry): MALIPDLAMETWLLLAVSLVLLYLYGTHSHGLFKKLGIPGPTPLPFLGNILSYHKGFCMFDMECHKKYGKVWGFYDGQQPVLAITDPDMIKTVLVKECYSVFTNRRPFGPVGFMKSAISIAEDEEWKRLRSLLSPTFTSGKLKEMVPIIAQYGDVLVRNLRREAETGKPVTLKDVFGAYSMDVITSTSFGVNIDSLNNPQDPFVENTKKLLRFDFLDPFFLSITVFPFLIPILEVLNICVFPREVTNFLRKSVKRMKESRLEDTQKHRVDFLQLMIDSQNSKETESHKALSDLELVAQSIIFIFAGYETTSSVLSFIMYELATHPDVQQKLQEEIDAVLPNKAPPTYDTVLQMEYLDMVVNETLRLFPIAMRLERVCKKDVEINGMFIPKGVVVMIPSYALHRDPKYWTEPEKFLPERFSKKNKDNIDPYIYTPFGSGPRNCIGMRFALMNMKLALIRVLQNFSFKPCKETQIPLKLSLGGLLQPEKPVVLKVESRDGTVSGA
Description: Inhibition of CYP3A4 (unknown origin)

physchem [11] = conditions: phosphate buffer, pH 6.5
Description: Aqueous solubility of the compound in phosphate buffer at pH 6.5 by LYSA method

Cytochrome P450 2C9 = Cytochrome P450 2C9 (Homo sapiens, UniProt P11712)
Chain of Cytochrome P450 2C9 (P11712 whole entry): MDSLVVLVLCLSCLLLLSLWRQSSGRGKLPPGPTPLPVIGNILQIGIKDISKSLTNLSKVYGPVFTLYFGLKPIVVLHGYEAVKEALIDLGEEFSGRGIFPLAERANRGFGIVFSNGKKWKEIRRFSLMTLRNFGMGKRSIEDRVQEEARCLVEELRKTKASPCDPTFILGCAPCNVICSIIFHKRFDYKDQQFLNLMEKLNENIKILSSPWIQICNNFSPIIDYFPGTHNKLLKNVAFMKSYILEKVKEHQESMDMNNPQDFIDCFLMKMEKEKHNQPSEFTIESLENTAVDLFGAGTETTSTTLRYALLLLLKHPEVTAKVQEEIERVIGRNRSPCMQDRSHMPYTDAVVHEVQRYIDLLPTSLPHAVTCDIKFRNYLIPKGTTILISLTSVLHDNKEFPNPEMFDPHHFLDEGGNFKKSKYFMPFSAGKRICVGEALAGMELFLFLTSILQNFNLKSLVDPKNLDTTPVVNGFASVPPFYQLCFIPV
Description: Inhibition of CYP2C9 (unknown origin)

Cytochrome P450 2D6 = Cytochrome P450 2D6 (Homo sapiens, UniProt P10635)
Chain of Cytochrome P450 2D6 (P10635 whole entry): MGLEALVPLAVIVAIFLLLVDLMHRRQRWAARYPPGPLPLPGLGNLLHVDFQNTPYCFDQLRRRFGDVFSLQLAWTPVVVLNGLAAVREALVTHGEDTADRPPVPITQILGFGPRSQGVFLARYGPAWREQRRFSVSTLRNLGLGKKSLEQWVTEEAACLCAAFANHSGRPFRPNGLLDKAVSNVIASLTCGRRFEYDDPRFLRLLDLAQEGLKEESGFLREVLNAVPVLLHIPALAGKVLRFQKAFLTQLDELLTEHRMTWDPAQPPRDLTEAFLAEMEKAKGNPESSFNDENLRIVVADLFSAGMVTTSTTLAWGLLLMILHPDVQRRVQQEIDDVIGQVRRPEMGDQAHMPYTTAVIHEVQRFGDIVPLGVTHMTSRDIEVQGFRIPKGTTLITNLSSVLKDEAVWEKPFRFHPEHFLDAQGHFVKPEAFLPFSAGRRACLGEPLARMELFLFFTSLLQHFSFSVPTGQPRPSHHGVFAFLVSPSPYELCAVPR
Description: Inhibition of CYP2D6 (unknown origin)

[12] = biological target: T3, Cytochrome P450 11B2, mitochondrial (Mus musculus, UniProt P15539)
T3 sequence (P15539 whole entry): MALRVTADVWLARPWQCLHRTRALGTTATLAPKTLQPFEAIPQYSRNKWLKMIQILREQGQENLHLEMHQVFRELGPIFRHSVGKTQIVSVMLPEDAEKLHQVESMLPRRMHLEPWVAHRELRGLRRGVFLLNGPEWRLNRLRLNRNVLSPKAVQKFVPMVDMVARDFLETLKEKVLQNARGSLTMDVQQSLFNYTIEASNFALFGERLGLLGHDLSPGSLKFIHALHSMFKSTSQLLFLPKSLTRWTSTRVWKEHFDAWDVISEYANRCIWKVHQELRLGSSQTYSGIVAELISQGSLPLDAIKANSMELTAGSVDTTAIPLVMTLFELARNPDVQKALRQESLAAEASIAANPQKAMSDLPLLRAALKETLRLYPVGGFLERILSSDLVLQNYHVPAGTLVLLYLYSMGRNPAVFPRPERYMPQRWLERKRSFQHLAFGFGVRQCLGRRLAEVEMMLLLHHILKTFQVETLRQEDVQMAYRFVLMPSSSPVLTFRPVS
Description: Inhibition of mouse CYP11B2 expressed in renal leiomyoblastoma cells

N#Cc1ccc(-c2cccnc2)cc1
CL [1]: 53 µg/min | CL [2]: < 10 µg/min | CL [3]: < 10 µg/min | IC50 [4]: 40 nM

O=C1CCc2cc(-c3cncc4ccccc34)ccc2N1
inhibition at 0.5 µM [5]: 65%

COC(=O)[C@@H]1CC2=CC(=O)CC[C@]2(C)[C@@]23O[C@@H]2C[C@@]2(C)[C@@H](CC[C@@]24CCC(=O)O4)[C@H]13
Activity (Rattus norvegicus [6]): Active | Activity (Rattus norvegicus [7]): Active | Activity (Rattus norvegicus [8]): Active

N#Cc1ccc(-c2cncc3c2CCCC3N)cc1 (racemic)
CL [1]: 12 µg/min | CL [2]: < 10 µg/min | CL [3]: < 10 µg/min | IC50 [4]: 42 nM

CC(=O)NC1CCCc2c(-c3ccc(C#N)cc3)cncc21 (racemic)
CL [1]: < 10 µg/min | logD (physchem [9]): 1.8 | Papp (physchem [10]): > 4.4 ×10⁻⁶ cm/s | IC50 (Cytochrome P450 3A4): > 50000 nM | CL [2]: < 10 µg/min | solubility (physchem [11]): 415 µg/mL (≈ 1420 µM) | IC50 (Cytochrome P450 2C9): > 50000 nM | CL [3]: < 10 µg/min | IC50 (Cytochrome P450 2D6): > 50000 nM | IC50 [4]: 21 nM

CC(C)C(=O)NC1CCCc2c(-c3ccc(C#N)cc3)cncc21 (racemic)
CL [1]: < 10 µg/min | logD (physchem [9]): 2.6 | Papp (physchem [10]): > 4.4 ×10⁻⁶ cm/s | IC50 (Cytochrome P450 3A4): > 50000 nM | CL [2]: < 10 µg/min | solubility (physchem [11]): 90 µg/mL (≈ 282 µM) | IC50 (Cytochrome P450 2C9): > 50000 nM | CL [3]: < 10 µg/min | IC50 (Cytochrome P450 2D6): > 50000 nM

CCC(=O)NC1CCCc2c(-c3ccc(F)c(F)c3)cncc21 (racemic)
CL [1]: 17 µg/min | logD (physchem [9]): 3 | Papp (physchem [10]): > 4 ×10⁻⁶ cm/s | CL [2]: 85 µg/min | solubility (physchem [11]): 310 µg/mL (≈ 980 µM) | CL [3]: < 10 µg/min | IC50 [4]: 47 nM

CCC(=O)NC1CCCc2c(-c3cc(F)c(F)cc3F)cncc21 (racemic)
CL [1]: < 10 µg/min | logD (physchem [9]): 3.1 | Papp (physchem [10]): > 4 ×10⁻⁶ cm/s | CL [2]: 78 µg/min | solubility (physchem [11]): 239 µg/mL (≈ 715 µM) | CL [3]: < 10 µg/min | IC50 [4]: 27 nM

CCC(=O)NC1CCCc2c(-c3ccc(Cl)cc3F)cncc21 (racemic)
CL [1]: 21 µg/min | logD (physchem [9]): 3.6 | Papp (physchem [10]): > 4 ×10⁻⁶ cm/s | CL [2]: 46 µg/min | solubility (physchem [11]): 129 µg/mL (≈ 388 µM) | CL [3]: < 10 µg/min | IC50 [4]: 28 nM

CCC(=O)NC1CCCc2c(-c3ccc(Cl)c(F)c3)cncc21 (racemic)
CL [1]: 36 µg/min | logD (physchem [9]): 3.6 | Papp (physchem [10]): > 4 ×10⁻⁶ cm/s | CL [2]: 31 µg/min | solubility (physchem [11]): 99 µg/mL (≈ 297 µM) | CL [3]: < 10 µg/min | IC50 [4]: 14 nM

N#Cc1ccc([C@H]2CCc3cncn32)c(F)c1 [OSILODROSTAT]
IC50 [12]: 210 nM
